Earlier results on one compound are cited in patent US10500196B2 (Aequus Pharmaceuticals Inc., priority 2015, dated 2019).

The conditions of this series: oral DICLEGIS tablet.

Consider `Cc1ncc(CO)c(CO)c1O.Cl` [Pyridoxine Hydrochloride, 3,4-pyridinedimethanol,5-hydroxy-6-methyl-,hydrochloride], for which the “absorption when administered with food” value is recorded as “delayed” and the bioavailability with food result is recorded as “reduces”.
